{"source": "patent US20080247985A1", "about": "“Composition base containing solubilized allantoin and urea for topical preparations” (priority 2007, published 2008)", "origin": "cited, not measured here", "details": "water at 25 °C", "data": [{"smiles": "NC(=O)NC1NC(=O)NC1=O", "note": "(stereo not shown) [allantoin, (2,5-dioxo-4-imidazolidinyl) urea]", "values": [{"measurement": "Solubility in water", "result": 0.45, "unit": "%"}]}]}
